Measurements taken from patent US7807720B2 (priority 2007, dated 2010).
pKi: −log10 of the molar value.

Molecular target: Bacillus anthracis lethal factor protease (Bacillus anthracis, UniProt P15917)
Assay: biochemical

Sequence of Bacillus anthracis lethal factor protease (P15917 34-809 limits assumed): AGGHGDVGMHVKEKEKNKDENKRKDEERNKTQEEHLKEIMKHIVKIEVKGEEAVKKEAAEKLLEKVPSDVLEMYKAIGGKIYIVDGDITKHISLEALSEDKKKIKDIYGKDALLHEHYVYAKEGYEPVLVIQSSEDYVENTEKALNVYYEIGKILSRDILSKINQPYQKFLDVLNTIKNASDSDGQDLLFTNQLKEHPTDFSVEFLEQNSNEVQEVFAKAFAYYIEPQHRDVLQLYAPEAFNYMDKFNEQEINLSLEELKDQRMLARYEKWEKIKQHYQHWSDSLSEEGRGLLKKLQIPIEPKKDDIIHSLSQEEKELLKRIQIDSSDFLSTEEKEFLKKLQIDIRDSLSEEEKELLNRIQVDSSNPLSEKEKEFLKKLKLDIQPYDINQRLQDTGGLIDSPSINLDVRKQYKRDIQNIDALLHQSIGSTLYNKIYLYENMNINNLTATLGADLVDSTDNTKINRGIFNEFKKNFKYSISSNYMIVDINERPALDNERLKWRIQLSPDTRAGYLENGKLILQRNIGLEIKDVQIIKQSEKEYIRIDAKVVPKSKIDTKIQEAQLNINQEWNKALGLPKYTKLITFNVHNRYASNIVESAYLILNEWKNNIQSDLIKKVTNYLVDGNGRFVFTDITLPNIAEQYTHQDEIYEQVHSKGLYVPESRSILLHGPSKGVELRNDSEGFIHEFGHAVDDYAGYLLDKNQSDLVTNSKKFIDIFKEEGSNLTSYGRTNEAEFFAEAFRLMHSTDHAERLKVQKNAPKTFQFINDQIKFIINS

In order of falling pKi:
1. Cc1cc(C[C@H](CCCCNCCCc2ccc(F)cc2)C(=O)NO)cc(C)c1F [Compound 168123, (S)-2-(4-Fluoro-3,5-dimethyl-benzyl)-6-[3-(4-fluoro-phenyl)-propylamino]-hexanoic acid hydroxyamide]  7.33
2. Cc1cc(C[C@H](CCCCNCCc2ccc(F)cc2)C(=O)NO)cc(C)c1F [Compound 168122, (S)-2-(4-Fluoro-3,5-dimethyl-benzyl)-6-[2-(4-fluoro-phenyl)-ethylamino]-hexanoic acid hydroxyamide]  7.19
3. Cc1cc(CNCCCC[C@@H](Cc2cc(C)c(F)c(C)c2)C(=O)NO)ccc1F [Compound 168050, (S)-2-(4-Fluoro-3,5-dimethyl-benzyl)-6-(4-fluoro-3-methyl-benzylamino)-hexanoic acid hydroxyamide]  7.13
4. Cc1cc(C[C@H](CCCCNCc2ccccc2)C(=O)NO)cc(C)c1F [Compound 168149, (S)-6-Benzylamino-2-(4-fluoro-3,5-dimethyl-benzyl)-hexanoic acid hydroxyamide]  6.89
5. Cc1ccc(CNCCCC[C@@H](Cc2cc(C)c(F)c(C)c2)C(=O)NO)o1 [Compound 168157, (S)-2-(4-Fluoro-3,5-dimethyl-benzyl)-6-[(5-methyl-furan-2-ylmethyl)-amino]-hexanoic acid hydroxyamide]  6.89
6. Cc1cc(C[C@H](CCCCNCc2ccc(Cl)cc2)C(=O)NO)cc(C)c1F [Compound 168125, (S)-6-(4-Chloro-benzylamino)-2-(4-fluoro-3,5-dimethyl-benzyl)-hexanoic acid hydroxyamide]  6.72
7. O=C(NO)[C@@H](CCCCNCc1ccc(F)cc1)Cc1ccc(F)c(Cl)c1 [Compound 168164, (S)-2-(3-Chloro-4-fluoro-benzyl)-6-(4-fluoro-benzylamino)-hexanoic acid hydroxyamide]  6.70
8. Cc1cc(C[C@H](CCCCNCc2ccc3c(c2)OCO3)C(=O)NO)cc(C)c1F [Compound 168148, (S)-6-[(Benzo[1,3]dioxol-5-ylmethyl)-amino]-2-(4-fluoro-3,5-dimethyl-benzyl)-hexanoic acid hydroxyamide]  6.66
9. CCC(CC)CNCCCC[C@@H](Cc1cc(C)c(F)c(C)c1)C(=O)NO [Compound 168171, (S)-6-(2-Ethyl-butylamino)-2-(4-fluoro-3,5-dimethyl-benzyl)-hexanoic acid hydroxyamide]  6.60
10. Cc1cc(CNCCCC[C@@H](Cc2ccc(F)c(C)c2)C(=O)NO)ccc1F [Compound 168139, (S)-2-(4-Fluoro-3-methyl-benzyl)-6-(4-fluoro-3-methyl-benzylamino)-hexanoic acid hydroxyamide]  6.55
11. Cc1cc(CC(CCN(C)CCCc2ccc(F)cc2)C(=O)NO)cc(C)c1F (stereo in doubt) [Compound 168172, (S)-2-(4-Fluoro-3,5-dimethyl-benzyl)-4-{[3-(4-fluoro-phenyl)-propyl]-methyl-amino}-N-hydroxy-butyramide]  6.54
12. Cc1cc(CC(C)C(=O)NO)cc(C)c1F (centres unmarked) [Compound 167858, 2-(4-fluoro-3,5-dimethylbenzyl)-N-hydroxypropanamide]  6.40
13. Cc1cc(C[C@H](CCCCNCC2CCCCC2)C(=O)NO)cc(C)c1F [Compound 168170, (S)-6-(Cyclohexylmethyl-amino)-2-(4-fluoro-3,5-dimethyl-benzyl)-hexanoic acid hydroxyamide]  6.40
14. Cc1cc(C[C@H](CCCCNCc2cc3ccccc3s2)C(=O)NO)cc(C)c1F [Compound 168180, (S)-6-[(Benzo[b]thiophen-2-ylmethyl)-amino]-2-(4-fluoro-3,5-dimethyl-benzyl)-hexanoic acid hydroxyamide]  6.40
15. Cc1cc(C[C@H](CCCCN(C)Cc2ccc(F)cc2)C(=O)NO)cc(C)c1F [Compound 168126, (S)-6-[(4-Fluoro-benzyl)-methyl-amino]-2-(4-fluoro-3,5-dimethyl-benzyl)-hexanoic acid hydroxyamide]  6.26
16. Cc1cc(CC(C(=O)NO)c2ccc(Br)cc2)cc(C)c1F (centres unmarked) [Compound 167856, 2-(4-Bromo-phenyl)-3-(4-fluoro-3,5-dimethyl-phenyl)-N-hydroxy-propionamide]  6.21
17. Cc1cc(C[C@H](CCCCNCc2cccc(-c3ccccc3)c2)C(=O)NO)ccc1F [Compound 168140, (S)-6-[(Biphenyl-3-ylmethyl)-amino]-2-(4-fluoro-3-methyl-benzyl)-hexanoic acid hydroxyamide]  6.15
18. Cc1cc(C[C@H](CCCCNCc2cnccn2)C(=O)NO)cc(C)c1F [Compound 168179, (S)-2-(4-Fluoro-3,5-dimethyl-benzyl)-6-[(pyrazin-2-ylmethyl)-amino]-hexanoic acid hydroxyamide]  6.15
19. Cc1cc(C[C@@H](C(=O)NO)c2ccc(Br)cc2)cc(C)c1F [Compound 168009, (R)-2-(4-Bromo-phenyl)-3-(4-fluoro-3,5-dimethyl-phenyl)-N-hydroxy-propionamide]  6.11
20. CCCCC(Cc1cc(C)c(F)c(C)c1)C(=O)NO (centres unmarked) [Compound 167533, 2-(4-Fluoro-3,5-dimethyl-benzyl)-hexanoic acid hydroxyamide]  5.92
21. Cc1cc(CCC(=O)NO)cc(C)c1F [Compound 167857, 3-(4-Fluoro-3,5-dimethyl-phenyl)-N-hydroxy-propionamide]  5.87
22. Cc1cc(CCCN(C)CC[C@@H](Cc2ccc(Cl)cc2)C(=O)NO)ccc1F [Compound 168150, 2R-(4-Chloro-benzyl)-4-{[3-(4-fluoro-3-methyl-phenyl)-propyl]-methyl-amino}-N-hydroxy-butyramide]  5.76
23. Cc1cc(C[C@H](CCC/C=C/C(C)C)C(=O)NO)cc(C)c1F [Compound 168023, (S)-2-(4-Fluoro-3,5-dimethyl-benzyl)-8-methyl-non-6-enoic acid hydroxyamide]  5.71
24. Cc1cc(C[C@H](CCCCNc2ccc(F)cc2)C(=O)NO)cc(C)c1F [Compound 168132, (S)-2-(4-Fluoro-3,5-dimethyl-benzyl)-6-(4-fluoro-phenylamino)-hexanoic acid hydroxyamide]  5.65
25. CCCCC(Cc1ccc(F)c(C)c1)C(=O)NO (centres unmarked) [Compound 167266, 2-(4-Fluoro-3-methyl-benzyl)-hexanoic acid hydroxyamide]  5.64
26. Cc1cc(C[C@H](CCCCCC(C)C)C(=O)NO)cc(C)c1F [Compound 168031, (S)-2-(4-Fluoro-3,5-dimethyl-benzyl)-8-methyl-nonanoic acid hydroxyamide]  5.58
27. Cc1cc(CCCN(C)CC[C@@H](Cc2ccc(Cl)cc2)C(=O)NO)cc(C)c1F [Compound 168156, 2R-(4-Chloro-benzyl)-4-{[3-(4-fluoro-3,5-dimethyl-phenyl)-propyl]-methyl-amino}-N-hydroxy-butyramide]  5.48
28. Cc1cc(COCCCC[C@@H](Cc2cc(C)c(F)c(C)c2)C(=O)NO)ccc1F [Compound 168141, (S)-2-(4-fluoro-3,5-dimethylbenzyl)-6-(4-fluoro-3-methylbenzyloxy)-N-hydroxyhexanamide]  5.44
29. Cc1cc(C[C@H](C(=O)NO)c2ccc(Br)cc2)cc(C)c1F [Compound 167973, (S)-2-(4-Bromo-phenyl)-3-(4-fluoro-3,5-dimethyl-phenyl)-N-hydroxy-propionamide]  5.24
30. Cc1cc(CCCCCC[C@@H](Cc2cc(C)c(F)c(C)c2)C(=O)NO)ccc1F [Compound 168124, (S)-2-(4-Fluoro-3,5-dimethyl-benzyl)-8-(4-fluoro-3-methyl-phenyl)-octanoic acid hydroxyamide]  4.99
31. Cc1cc(CC(C#N)C(=O)NO)cc(C)c1F (centres unmarked) [Compound 167914, 2-Cyano-3-(4-fluoro-3,5-dimethyl-phenyl)-N-hydroxy-propionamide]  4.32
32. Cc1cc(C[C@@H](CCC/C=C/C(C)C)C(=O)NO)cc(C)c1F [Compound 168051, (R)-2-(4-Fluoro-3,5-dimethyl-benzyl)-8-methyl-non-6-enoic acid hydroxyamide]  4.29
33. CCCC[C@@H](Cc1ccccc1)C(=O)NO (stereo in doubt) [Compound 167550, 2-Benzyl-hexanoic acid hydroxyamide]  4.19
34. Cc1cc(CCCCCC[C@@H](Cc2ccc(Cl)cc2)C(=O)NO)ccc1F [Compound 168134, (S)-2-(4-Chloro-benzyl)-8-(4-fluoro-3-methyl-phenyl)-octanoic acid hydroxyamide]  4.19
35. Cc1cc(C[C@@H](CCCCCC(C)C)C(=O)NO)cc(C)c1F [Compound 168052, (R)-2-(4-Fluoro-3,5-dimethyl-benzyl)-8-methyl-nonanoic acid hydroxyamide]  3.52
